Test results as given in a melting point compilation (Tetko et al.; mined from patent text by program, amines drawn as free bases though some values may be those of a salt).

SMILES	melting point [°C]
Cc1cccc(CCC(=O)Cn2ccnc2)c1	160 to 162
COc1ccc(NC(=S)Nc2cscc2C)c(N)c1	143 to 146
CC(C)(C)c1ccc(C(N)=O)c(NC(=O)Nc2cccnc2)c1	188 to 189
COc1ccccc1N1CCN(C(=O)N(C)c2nc(C)c(C)nc2OC)CC1	140 to 142
CN1CCCC(COc2ccc(C(=O)NN)cc2)C1 (configuration not stated)	170 to 172
COc1cccc2c(=O)c(C(C)=O)c[nH]c12	287 to 289
COC(=O)c1cc2cc(OC)c(OC)cc2nc1N	227 to 229
O=c1c2cc(F)c(N3CCCC3)c(F)c2n(C2CC2)c(=O)n1O	228 to 230
CC(C)c1cccc(C(C)C)c1NC(=O)NCCN1CCN(CCSc2nc3ncccc3o2)CC1	175 to 176
COC(=O)c1ccc(-c2ccccc2-c2nnn(C(C)(C)c3ccccc3)n2)cc1	97 to 98
O=C(O)C1(CP(=O)(OCc2ccccc2)OCc2ccccc2)CCCC1	89 to 92
COc1ccc(C(=O)c2ccccc2F)c(O)c1C	118 to 120
COc1cccc(CCNC(=O)c2nc(N)sc2-c2ccncc2)c1OC	167 to 168
Cc1c(C)c2c(c(C)c1O)CCC(C)(C(=O)N1CCC(Oc3ccc([N+](=O)[O-])cc3)C1)O2 (configuration not stated)	176 to 178
COc1ccc(CCOc2cccc(-c3cccc(N)c3)n2)cc1OC	103 to 104
Brc1cc(-c2ccccc2)on1	71 to 73
CC(C)C(C(=O)OCc1nn(Cc2ccccc2)c(=O)o1)c1ccc(Cl)cc1 (configuration not stated)	70
CCc1nc2c(C)cc(C)nc2n1Cc1ccc(C(=Cc2nnn[nH]2)c2ccccc2Cl)cc1	28
CC(=O)OCC(=O)c1cc2c(s1)SCCc1cc(=O)n(-c3ccc(Cl)cc3)nc1-2	172 to 174
c1ccc(-c2nn3ccccc3c2-c2ccnnc2)cc1	204 to 205
Cc1nn(CCO)c(C)c1Oc1cc(Cl)cc(Cl)c1	114 to 115
Cc1ccc(-c2ccc3c(c2)C=C(C(=O)NC2CCN(C(=O)OC(C)(C)C)CC2)CCO3)cc1	205 to 208
Cc1ccccc1C=CC(=O)OCCc1ccccc1	52 to 53
CCn1c(=O)c(-c2cc(OC)cc(OC)c2)cc2cnc(Nc3ccncc3)nc21	305 to 307
COc1ccc(-c2ccc(C(=O)O)cc2)cc1F	253

SMILES	melting point [°C]
O=S(=O)(Nc1ccc(Cl)nc1I)c1ccc2ncsc2c1	191
CC(C)N(C(C)C)S(=O)(=O)N[C@@H](Cc1ccc(NC(=O)c2c(Cl)cncc2Cl)cc1)C(=O)O	151
COc1ccc(CN2C(=O)[C@H](N3C(=O)c4ccccc4C3=O)[C@@H]2C(=O)OCc2ccccc2)c(OC)c1 (relative stereo)	198 to 200
CCCCCCCCOC(=O)NCCC(=O)O	70 to 72
CCOC(=O)c1c(O)c2cc(F)cnc2n(Cc2ccc(OC)cc2)c1=O	163
CCC(CC)Cn1c(=O)c(=O)[nH]c2cc([N+](=O)[O-])c(-n3cccc3)cc21	154 to 155
COc1ccc2c(c1)CCC1C2CCC2(C)C(=O)CCC12 (configuration not stated)	128 to 131
CC(C)(C)c1ccc(S(=O)(=O)NC(=O)C(Oc2ccc3c(c2)C(=O)NC3=O)c2ccc3c(c2)OCO3)cc1 (configuration not stated)	215
Cc1ccccc1Sc1c(O)c2ccc(Cl)cc2[nH]c1=O	296 to 299
C#CC1N(C(=O)Oc2ccccc2)c2cc(OC(=O)C(C)(C)C)ccc2C23OC12CCCC3=O (configuration not stated)	164 to 166
Cc1nc2ccc(Oc3ncccc3C(=O)NCc3ccc(C(C)(C)O)cc3)cc2s1	131 to 133
COC(=O)c1cccc(-c2nc(-c3ccc(F)c(F)c3)cs2)c1	147 to 148
COc1ccc(C2=c3c(c4c(c5ccccc35)=C(c3ccc(OC)cc3)CO4)NC2)cc1	340
CC(=O)Nc1nc(C)c(S(=O)(=O)NCCO)s1	211
CN(C)CCNCc1ccc(-c2cc3ncnc(Nc4ccc5[nH]ccc5c4)c3s2)cc1	170 to 183
NC(=O)c1cc(N2CCN(Cc3ccc(F)cc3)C2=O)n[nH]1	256 to 258
COc1ccc(CC(=O)c2c(O)c3cccnc3n(-c3ccccc3)c2=O)cc1OC	161 to 163
Cc1ccc(C(=O)NC(NC(=O)Nc2ccccc2F)C(Cl)(Cl)Cl)cc1 (configuration not stated)	257 to 259
CCCCNc1cccnc1S(N)(=O)=O	100 to 101
CS(=O)(=O)c1ccc(-c2cnn(-c3cccc(S(C)(=O)=O)c3)c(=O)c2-c2ccc(F)cc2)cc1	141 to 142
CCCCOc1ccc2c(c1)CCC(C(=O)O)=C2	148 to 150
CCC(=O)NS(=O)(=O)c1cccc(-c2cccc(-c3cc(-c4ccc(C(F)(F)F)cc4)cc(C)n3)n2)c1	173
CC(=O)NNc1ccc(NC(=S)N(C)C)cc1	187 to 189
CC1CC(=O)NN=C1c1ccc(NC(=O)CCBr)cc1 (configuration not stated)	215 to 217
OCc1cn(C(c2ccccc2)(c2ccccc2)c2ccccc2)cn1	224 to 227

SMILES	melting point [°C]
CCCS(=O)(=O)Nc1c(C(=O)c2ccccc2)[nH]c2cc(Cl)ccc12	164 to 167
COc1ccc(S(=O)(=O)Nc2ccccc2NC(=O)c2cccc(O)c2)cc1	191 to 192
CS(=O)(=O)Nc1ccc(OCCCNC(=O)c2ccc(Br)cc2)cc1	208 to 209
C[C@H]1CC[C@H]2C(C)(C)[C@@H](O)CC[C@]23Oc2c(c(OCc4ccccc4)cc4c2CN(C(=O)OC(C)(C)C)C4=O)C[C@]13C	138 to 140
O=C1c2ccccc2C(=O)N1Cc1noc(-c2ncn3c2[C@@H]2CCN2C(=O)c2cc(F)ccc2-3)n1	287 to 288
CC1(C)C(=O)Nc2cc3[nH]c(-c4ccc(Cl)c(Cl)c4)nc3cc21	320 to 325
CSc1ccc2c(c1)C(O)c1ccccc1C=C2 (configuration not stated)	117 to 118
CS(=O)(=O)c1ccc(-n2nc(C(F)(F)F)cc2-c2ccc(-c3cnco3)cc2)cc1	178 to 180
Cn1cccc1C1=CC(=O)c2ccccc2C1=O	95 to 96
CCCC(NOCC)=C1C(=O)CC(c2cc3ccccc3[nH]c2=O)CC1=O (configuration not stated)	155 to 157
O=C(Nc1ccc(-n2nc(-c3cncc(Br)c3)cc2OC(F)F)cc1)c1ccncc1F	179 to 180
c1ccc(-c2coc3c2ccc2ccccc23)cc1	98 to 109
O=C(Nc1ccc2ccc(Cl)nc2n1)c1cncs1	292
Nc1nn2cc(-c3ccc([N+](=O)[O-])o3)nc2s1	257 to 258
O=C(O)c1cn(-c2ccc(F)cc2F)c2nc(S(=O)(=O)c3ccccc3)c(F)cc2c1=O	252 to 258
OC(CCCN1CC=C(c2ccccc2)CC1)c1ccc(Cc2ccc(Cl)cc2)cc1 (configuration not stated)	108 to 111
CC1(CCC(=O)O)CCCc2c1[nH]c1ccccc21 (configuration not stated)	204 to 206
FC(F)(F)c1cc(C(F)(F)F)c(-c2ccc(Cl)cc2)[nH]1	41 to 43
N#Cc1cccc(CN2CCC(c3ccc(NC(=O)c4ccccc4-c4ccc(C(F)(F)F)cc4)cc3)CC2)c1	124 to 126
Cc1nc(N2CCCC(Cc3ccc(C(F)(F)F)cc3)C2=O)sc1C(=O)NCc1ccccc1 (configuration not stated)	217 to 218
O=CNCC1c2ccccc2C=Cc2ccccc21	115 to 118
CNS(=O)(=O)c1ccccc1Nc1nc(Nc2ccc3c(c2)COCCN3C)ncc1Cl	163 to 164
Cc1cccc2sc(-n3nc(CCC(=O)N(C)O)cc3-c3ccc(Cl)cc3)nc12	156 to 158
CCn1cc(C(=O)NCc2ccc(Cl)cc2)c(=O)c2cc(CCl)sc21	199 to 200
COc1cc(C)c(C(=O)c2c(OC)cnc(Cl)c2Cl)c(OC)c1OC	98 to 99

SMILES	melting point [°C]
CC1CC(C)OP(=O)(Cc2ccc(N)cc2)O1 (configuration not stated)	160 to 161
CCCCCCCCCCCCCCCCNC(=O)Nc1sc(C(=O)O)c(C)c1C(=O)OC(C)(C)C	188 to 189
O=C(NC1CCCCC1)n1cc(F)c(=O)[nH]c1=O	276 to 278
COc1ccc2ccc(NC(=O)c3c(F)cccc3F)nc2n1	219 to 220
Oc1ccc2c(c1Cl)Sc1ccccc1N2	110
Cc1nc(N2CCN(Cc3ccc(F)cc3)C2=O)sc1C(=O)NCc1cccnn1	222 to 225
CCCOc1ccccc1-c1nc2c(CCCc3ccccc3)cccc2c(=O)[nH]1	89
CCCCc1nn(-c2ccccc2Cl)c(=O)n1Cc1ccc(-c2ccccc2S(=O)(=O)NC(=O)C(F)(F)F)cc1	163 to 166
Cc1ccc(NC(=O)Nc2cccc(C(F)(F)F)c2)cc1/C=C/n1cnc2c(NC3CC3)ncnc21	160 to 162
CC(C)C(=CC(CNC(=O)c1cccnc1)=NO)C(C)[N+](=O)[O-] (configuration not stated)	132 to 135
CSc1ccnc(-c2nc(=O)c3ccccc3s2)c1	213 to 214
CCCCCCCCCCOC(=O)c1cc(C(=O)OCCCCCCCCCC)cc([N+](=O)[O-])c1	48 to 50
CCCCc1cc(C)cc(=O)[nH]1	95
O=C(Nc1nc(-c2ccco2)c(C(=O)C2CCSCC2)s1)c1ccncc1	203 to 210
COc1cc2c(cc1OC)C1Cc3cc(OC)c(OC(=O)C=Cc4cc(OC)c(OC)c(OC)c4)cc3CN1CC2 (configuration not stated)	207 to 210
CCOC(=O)Cn1c(=S)n(Cc2ccc(Cl)c(Cl)c2)c(=S)c2ccccc21	155 to 156
COc1cc(CNC(=S)NC(COC(=O)C(C)(C)C)Cc2ccc(C)c(C)c2)ccc1O (configuration not stated)	43 to 48
O=C(O)CCCCNC(=O)Cc1ccc2c(c1)CC(NS(=O)(=O)c1ccc(Cl)cc1)C2 (configuration not stated)	156 to 158
CC(C)(C)OC(=O)Nc1cc(N2CCC3(CC2)OCCO3)c(-c2ccccc2F)cc1N	198
CNC(=O)CC1N=C(C2CCCCC2)c2c(sc(C)c2C)-n2c(C)nnc21 (configuration not stated)	228 to 231
CCOC(=O)C(Oc1cc(-c2ccccc2)on1)C(=O)OCC	62 to 64
ON=Cc1cccc2cccc(N3CCCC3)c12	187 to 188
